One data set has as its system Factor VIII:C. Nature of the data set: Factor VIII:C level by enzyme-linked immunoassay (ELISA). The format is cell-based, bovine. As to conditions: 1 μg/ml tunicamycin. The procedure:
In conducting ELISA, 96-well microtiter EIA plates, available from Corning Inc., Corning, N.Y., were coated overnight at 4° C. with 50 μl mouse monoclonal anti-Factor VIII:C antibody (i.e., IgG1k which is commercially available from Molecular Biochemicals (previously known as “Boehringer-Mannheim”), Indianapolis, Ind. (diluted 1:500) in 100 mM sodium carbonate buffer, pH 9.2. Blank wells were coated similarly with 0.25 μg of bovine serum albumin (BSA). The plates were washed three times 50 μl each wash with 50 mM Tris-HCl, pH 7.5 containing 150 mM NaCl and 0.5% (v/v) Tween-20 (TBST), available from Bio-Rad Laboratories, Richmond, Calif. and incubated at 37° C. for one hour with 50 μl conditioned media or cell lysates. The cell lysates were obtained by incubating for 20 minutes with 1 ml of ice-cold 20 mM TRIS-HCL, pH 8.0 buffer containing 150 mM NaCl, 1% (v/v) NP-40 and 1 μg/ml aprotinin. At the end of the incubation, the plates were washed three times with TBST, as above, and incubated at 37° C. for another hour with 50 μl of 1:500 diluted monoclonal anti-Factor VIII:C antibody. […] The absorbance was read at approximately 405 nm after 30 minutes by using an EIA microplate reader, Model 2550 with a 405 nm filter, both available from Bio-Rad Laboratories, Richmond, Calif. […]
On the technique in general: An ELISA detects its analyte on a solid surface through an enzyme-linked reagent.

The test system of data set [1] is bovine adrenal medullary microvascular endothelial cells. Nature of the data set: Cell viability by trypan blue exclusion. The format is cell-based. As to conditions: under tunicamycin exposure (0.5-5.0 μg/ml, 32 hours). As for the experimental part: For proliferation assay, cells were trypsinized and counted in a hemacytometer. Viability of cells was determined by trypan blue (0.4% (v/v)) exclusion. Statistical analysis was carried out by StatView II software (Macintosh). Quantitation of cellular differentiation was carried out by observing under a Nikon AlphaShot inverted microscope, and counting the number of capillary lumen-like structures in five randomly selected fields per sample.
Proliferation and Differentiation of Capillary Endothelial Cells: 2.0×10^4 cells were seeded per well in 24-well clusters in 1 ml complete EMEM containing 10% (v/v) serum and allowed to grow for 72 hours. Media were removed and the cells were washed twice with phosphate-buffer saline, pH 7.4 (PBS). […] Cells were routinely monitored by light microscopy. For proliferation assay, cells were trypsinized and counted in a hemacytometer. Viability of cells was determined by trypan blue (0.4% (v/v)) exclusion. […] Quantitation of cellular differentiation was carried out by observing under a Nikon AlphaShot inverted microscope, and counting the number of capillary lumen-like structures in five randomly selected fields per sample. The results were expressed as percent of its corresponding control after normalization of cell numbers. […] After FacSort calibration, 3000 events were counted per sample. […]

Regarding tunicamycin, in the data set on Factor VIII:C, the “time from which Factor VIII:C level started increasing” value is at least 32 h. Also, in the data set with Factor VIII:C (conditioned media and cell lysates), the “level of immunopositive Factor VIII:C versus controls” value is given as “high level”. In addition, in data set [1], the “total adherent cells viable” value is reported as “more than 70%”.

Source of the values: patent US7361643B2, “Methods for inhibiting angiogenesis” (University of Puerto Rico, priority 2000, dated 2008).
